Measured values published in patent publication US5858702A, “Isolation, cloning and expression of transmembrane water channel Aquaporin 5 (AQP5)” (The Johns Hopkins University, priority 1995, dated 1999).

Assays:
[1] = target: T1, CHIP28 (Homo sapiens, UniProt P29972); experiment: Stopped-flow water flux (Pf) in CHIP28 proteoliposomes, effect of mercurial reagents; format: biochemical
T1 construct: was comprised of AQP1 (the 28-kDa protein itself and the 35-60-kDa glycosylated protein); from tissue; host or cells: human erythrocytes (blood-bank units; small-scale purifications from freshly drawn whole blood)
T1 sequence (P29972 2-269 limits assumed): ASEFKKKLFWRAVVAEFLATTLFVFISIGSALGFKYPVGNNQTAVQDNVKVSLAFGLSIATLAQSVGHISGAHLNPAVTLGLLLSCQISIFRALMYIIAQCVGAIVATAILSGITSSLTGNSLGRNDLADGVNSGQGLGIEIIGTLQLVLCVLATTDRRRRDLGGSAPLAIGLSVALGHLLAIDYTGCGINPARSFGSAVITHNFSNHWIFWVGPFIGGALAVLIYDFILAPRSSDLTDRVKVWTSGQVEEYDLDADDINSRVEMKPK
Experimental: Purified AQP1 was stored overnight at 0° C. or frozen for several days at -80° C. prior to reconstitution. Reconstitution into proteoliposomes was carried out in a final volume of 1 ml containing 60-90 μg of purified AQP 1 protein in chromatography buffer, 9 mg of bath-sonicated E. coli phospholipid, 1.25% (w/v) octyl glucoside, and 50 mM Tris-HCl (pH 7.5). The mixture was briefly blended on a vortex mixer and incubated for 20 minutes on ice. Proteoliposomes (or liposomes prepared without protein) were formed at room temperature by rapidly injecting the mixture into 25 ml of buffer A [50 mM MOPS, pH 7.5, 150 mM N-methyl-D-glucamine (NMDG) chloride also containing 10-15 mM carboxyfluorescein, 1 mM dithiothreitol, and 0.5 mM PMSF]. For the measurement of proton permeability, proteoliposomes and liposomes were loaded with buffer B (5 mM MOPS, pH 7.5, 150 mM KCl, 0.5 mM carboxyfluorescein, 1 mM dithiothreitol, and 0.5 mM PMSF). The suspension was incubated for 20 minutes at room temperature. Proteoliposomes or liposomes were collected by centrifugation for 1 hour at 123000×g in a Beckman Type 42.1 rotor at 4° C. The pellet was resuspended in 8 ml of buffer A or B and then centrifuged for 1 hour at 152000×g in a Beckman Type 50 Ti rotor. Proteoliposomes or liposomes were resuspended in 300 μl of buffer A or B and stored at 4° C. for 16-24 hours. Typically 50% (54±6%, n=5) of the AQP1 protein and 70% of the phospholipid were recovered in proteoliposomes. The lipid to protein ratio was in the range of 120:1 to 219:1. These proteoliposomes have internal volumes of 1 μl/mg of phospholipid (Ambudkar and Maloney, 1986, J. Biol. Chem. 261:10079-10086). Protein and phospholipid were measured as described by Ambudkar & Maloney (J. Biol. Chem., 1986, 261:10079-10086).
(§1) Permeability measurements. Membrane permeability measurements (Pf) were measured by exposing AQP1 proteoliposomes or control liposomes to an osmotic gradient by rapid mixing with an equal volume of another solution containing buffer A plus sufficient sucrose to increase osmolality in the mixed solutions to a value 120% of that in the original solution. This was performed with a stopped-flow fluorometer (SF.17MV, Applied Photophysics, Leatherhead, U.K.) with a measured dead time of 0.7 ms. The excitation wavelength was set at 490±1.5 nm using a 150-W mercury-xenon arc lamp and monochromator (.function.3.4 grating monochromator, both from Applied Photophysics); the emission wavelength was >515 nm using a cut-on filter (Oriel Corp., Stratford, Conn.). Extravesicular carboxyfluorescein fluorescence was completely quenched using anti-fluorescein antibody (Harris et al., 1990, Am. J. Physiol. 259:F366-F371).
Within the range of osmolalities used in these experiments, the vesicles acted as perfect osmometers, and relative volume (absolute volume divided by initial volume) was linearly related to relative fluorescence (absolute fluorescence divided by initial fluorescence). The data obtained from 8 to 16 determinations was averaged and fit to single-exponential curves using 5 software provided by Applied Photophysics (Zeidel et al., 1992, Biochemistry 31:589-596). The fitting parameters were then used to determine Pf by first applying the linear conversion from relative fluorescence to relative volume and then iteratively solving the water permeability equation using MathCAD software (MathSoft, Cambridge, Mass.):
dV(t)/dt=(Pf)(SAV)(MVW)[(Cin /V(t))-Cout ] (1)
where V(t) is relative intravesicular volume as a function of time, Pf is osmotic water permeability in centimeters per second, SAV is the vesicle surface area to volume ratio, MVW is the molar volume of water (18 cm^3 /mol), and Cin and Cout are the initial concentrations of total solute inside and outside the vesicle, respectively (Zeidel et al., 1992, Biochemistry 31:589-596).
Effect of mercural reagents.

[2] = Stopped-flow water flux (Pf) in control liposomes, effect of mercurial reagents; format: biochemical; conditions: 1 mM mercurial
Experimental: Purified AQP1 was stored overnight at 0° C. or frozen for several days at -80° C. prior to reconstitution. Reconstitution into proteoliposomes was carried out in a final volume of 1 ml containing 60-90 μg of purified AQP 1 protein in chromatography buffer, 9 mg of bath-sonicated E. coli phospholipid, 1.25% (w/v) octyl glucoside, and 50 mM Tris-HCl (pH 7.5). The mixture was briefly blended on a vortex mixer and incubated for 20 minutes on ice. […] Protein and phospholipid were measured as described by Ambudkar & Maloney (J. Biol. Chem., 1986, 261:10079-10086).
as §1, with “The excitation wavelength was set at 490±1.5 nm using a 150-W mercury-xenon arc lamp and monochromator (.function.3.4 grating monochromator, both from Applied Photophysics); the emission wavelength was >515 nm using a cut-on filter (Oriel Corp., Stratford, Conn.).” left out, “259:F366-F371). […]” for “259:F366-F371).”

[3] = test system: Red cell water channels; conditions: submillimolar concentrations; cited from earlier work

reversal of inhibition by both mercurial reagents ([1]; β-mercaptoethanol 5 mM after pCMBS or HgCl2) | Structure (SMILES) | time to complete inhibition of Pf ([1]; 1 mM, 37° C.) [min] | Pf in CHIP28 proteoliposomes after mercurial ([1]; 1 mM, 37° C. (FIG. 12: pCMBS 25 minutes, HgCl2 3 minutes)) [cm/s] | effect on the Pf of control liposomes [2] | inhibition of red cell water channels [3]
 | [Cl][Hg][Cl] [HgCl2] | ≤ 5 | 0.007±0.003 | Neither pCMBS nor HgCl2 had any effect | can be inhibited by submillimolar concentrations
completely reversed | OCCS [β-mercaptoethanol] |  |  |  | 
